This note sets out measurements from paper PMC9851200, “Multiparameter phenotypic screening for endogenous TFEB and TFE3 translocation identifies novel chemical series modulating lysosome function” (Autophagy, 2022).

The subject of series [1] is endogenous TFEB. The series is described as follows: TFEB nuclear translocation, immunocytochemistry high-content imaging. Format: cell-based.
In series [2] the test system is endogenous TFE3. The series is described as follows: TFE3 nuclear translocation, immunocytochemistry high-content imaging. The class given is cell-based.
The subject of series [3] is SH-SY5Y cells.
Description: The PKIS2 Library was supplied by The Structural Genomics Consortium at the University of North Carolina at Chapel Hill.
Series [4] has as its system SH-SY5Y cells. The following applies: human.
Protocol: (§1) Total cell lysis with 5 µL 5% Triton-X 100 (Sigma-Aldrich, T8787) is used as a positive control for the assay and toxicity is expressed as a percentage of luminescence under DMSO conditions.
The subject of series [5] is SH-SY5Y cells. The note with it: human. This is another data set of the same source.
For series [6], the system named is SH-SY5Y cells. Kind of series: Chemotype enrichment analysis of PKIS2 primary screen hit categories. The following applies: PKIS2 primary screening, hit category.
Series [7] relates to SH-SY5Y cells. Kind of series: AK (adenylate kinase) release ToxiLight cytotoxicity assay. The following applies: for AK: PKIS2 primary screening.
Protocol: as §1
For series [8], the system named is SH-SY5Y cells. The series is described as follows: Nuclear count from microscopy images (cellular growth and toxicity). The note with it: PKIS2 primary screening.
[9] abbreviates: PKIS2 primary screening, DQ Red BSA intensity.
Setting [10] is: PKIS2 primary screening, DQ Red BSA spot count.

“Also recorded” adds a separate entry of the source. Where two headings read alike, the source gives them in different places.

Compound `O=C1NC(=O)C(c2ccc(Cl)cc2)=C1Nc1cccc(Cl)c1` [UNC10225464A] showed a TFEB % in series [1] of 3.70%. The compound also gave a TFE3 % in series [2] of 10.27%. Moreover, in series [3], the “DQ Intensity” value is 132.70 and the “DQ Spot” value was 111.59. Besides, in series [4] (SH-SY5Y cells, 24 h, 1 µM), the AK turned out to be 74.47. Further, the “Nuclear Count” value in series [5] (SH-SY5Y cells, 24 h, 1 µM) was determined as 85.62.
For the compound `CSc1ccc(NC2=C(c3ccc(Cl)cc3)C(=O)NC2=O)cc1` [UNC10225216A], in series [1], the TFEB % came out at 4.27%. Besides, the TFE3 % in series [2] turned out to be 17.03%. Also, in series [3], the “DQ Intensity” value was found to be 88.23 and the “DQ Spot” value came out at 93.29. The compound further came in with an AK in series [4] (SH-SY5Y cells, 24 h, 1 µM) of 104.34. The “Nuclear Count” value in series [5] (SH-SY5Y cells, 24 h, 1 µM) came out at 155.73.
Consider `COc1cccc(C2=C(Nc3cccc(O)c3)C(=O)NC2=O)c1` [UNC10225456A], for which the TFEB % in series [1] amounted to 8.57%. In series [2], this compound yielded a TFE3 % of 7.19%. In series [3], the “DQ Intensity” value is 100.94 and the “DQ Spot” value came to 105.72. This compound displayed an AK in series [4] (SH-SY5Y cells, 24 h, 1 µM) of 101.77. Further, in series [5] (SH-SY5Y cells, 24 h, 1 µM), the “Nuclear Count” value came to 97.83.
`O=C(Nc1n[nH]c2nc(-c3ccccc3)c(Br)cc12)C1CC1` [SB-708998] had a TFEB % in series [1] of 9.86%. Further, the TFE3 % in series [2] stood at 9.05%. Besides, in series [3], the “DQ Intensity” value was 93.68 and the “DQ Spot” value was determined as 102.39. The AK in series [4] (SH-SY5Y cells, 24 h, 1 µM) turned out to be 115.51. The “Nuclear Count” value in series [5] (SH-SY5Y cells, 24 h, 1 µM) is given as 73.65.
As for `CC(C)(CN)c1nc(-c2ccc(Cl)c(O)c2)c(-c2ccncc2)[nH]1.O=C(O)C(F)(F)F` [UNC10225206B], the TFEB % in series [1] (PKIS2 primary screening) is 5.00%. The TFE3 % in series [2] (PKIS2 primary screening) is given as 3.59%. The Outcome entry in series [6] is “DQ Only”. Besides, the “DQ Intensity” value in series [3] (setting [9]) is on record as 150.27. For the same compound, the “DQ Spot” value in series [3] (setting [10]) is reported as 119.19. Besides, the “Nuclear Count” value in series [5] is reported as 109.20. In series [7], this compound registered an AK of 116.08.
In the case of `CCCC(=O)Nc1n[nH]c2ncccc12` [SB-601436], the TFEB % in series [1] turned out to be 6.83%. In series [2], this compound showed a TFE3 % of 11.89%. Further, in series [3], the “DQ Intensity” value is on record as 119.21 and the “DQ Spot” value was determined as 109.95. The AK in series [4] (SH-SY5Y cells, 24 h, 1 µM) is listed as 122.64. Also, in series [5] (SH-SY5Y cells, 24 h, 1 µM), the “Nuclear Count” value was 111.13.
Compound `O=C1NC(=O)C(c2ccccc2Cl)=C1Nc1cccc(Cl)c1` [UNC10225092A] came in with a TFEB % in series [1] of 6.93%. In addition, the TFE3 % in series [2] is given as 13.82%. Besides, in series [3], the “DQ Intensity” value amounted to 81.85 and the “DQ Spot” value is reported as 94.92. This compound also showed an AK in series [4] (SH-SY5Y cells, 24 h, 1 µM) of 96.89. In addition, the “Nuclear Count” value in series [5] (SH-SY5Y cells, 24 h, 1 µM) was determined as 114.88.
As to `Nc1n[nH]c2nnc(-c3ccccc3)c(-c3ccccc3)c12` [UNC10225185A], the TFEB % in series [1] stood at 8.38%. This compound also gave a TFE3 % in series [2] of 12.30%. For the same compound, in series [3], the “DQ Intensity” value is reported as 101.09 and the “DQ Spot” value came out at 91.84. The same compound showed an AK in series [4] (SH-SY5Y cells, 24 h, 1 µM) of 73.45. For the same compound, the “Nuclear Count” value in series [5] (SH-SY5Y cells, 24 h, 1 µM) was found to be 95.91.
In turn, `CC(=O)Nc1n[nH]c2ncc(-c3ccccc3)cc12` [SB-548492] displayed a TFEB % in series [1] of 4.73%. This compound also showed a TFE3 % in series [2] of 13.46%. Moreover, in series [3], the “DQ Intensity” value amounted to 81.01 and the “DQ Spot” value was 101.49. This compound displayed an AK in series [4] (SH-SY5Y cells, 24 h, 1 µM) of 85.75. The “Nuclear Count” value in series [5] (SH-SY5Y cells, 24 h, 1 µM) is given as 87.30.
In series [1] (PKIS2 primary screening), `CCCCc1nn2ncccc2c1-c1ccnc(Nc2ccc(N3CCN(C)CC3)cc2)n1` [UNC10225453A] showed a TFEB % of 12.73%. In series [2] (PKIS2 primary screening), this compound yielded a TFE3 % of 20.14%. Further, in series [3] (PKIS2 primary screening), the “DQ Intensity” value is listed as 158.78 and the “DQ Spot” value came out at 101.42. Also, the “Nuclear Count” value in series [5] was found to be 74.87. Also, the AK in series [7] worked out at 108.81.
As for `O=c1cc(N2CCOCC2)nc2n(Cc3cccc(Cl)c3Cl)ccn12` [UNC10225167A], the TFEB % in series [1] (PKIS2 primary screening) stood at 3.69%. Further, the TFE3 % in series [2] (PKIS2 primary screening) is listed as 15.96%. In series [3] (PKIS2 primary screening), the “DQ Intensity” value is 91.40 and the “DQ Spot” value is listed as 112.20. Also, the AK in series [4] was found to be 151.05. In series [8], the “Nuclear Count” value is 101.24.
In the case of `CN(C)CC(O)COc1ccc(Nc2nccc(-c3cnn4nc(N5CCOCC5)ccc34)n2)cc1` (stereo not shown) [UNC10225197A], in series [1], the TFEB % is 3.40%. In series [2], this compound gave a TFE3 % of 12.57%. In series [3], the “DQ Intensity” value was found to be 107.33 and the “DQ Spot” value was 110.97. Besides, in series [5], the “Nuclear Count” value is 103.35. Also, in series [7], the AK came to 142.32.
On to `CCCCc1nn2ncccc2c1-c1ccnc(NC2CC2)n1` [UNC10225247A], for which the TFEB % in series [1] (PKIS2 primary screening) is recorded as 2.59%. Moreover, the TFE3 % in series [2] (PKIS2 primary screening) came out at 6.63%. In series [3] (PKIS2 primary screening), the “DQ Intensity” value is reported as 77.25 and the “DQ Spot” value is on record as 98.14. In addition, in series [5], the “Nuclear Count” value is on record as 77.00. The AK in series [7] is listed as 99.47.
In turn, `CC(C)(CN)c1nc(-c2ccc(Cl)c(O)c2)c(-c2ccncc2)[nH]1.O=C(O)C(F)(F)F` [UNC10225206A] yielded a TFEB % in series [1] (PKIS2 primary screening) of 8.68%. Further, the TFE3 % in series [2] (PKIS2 primary screening) came to 7.79%. Moreover, in series [6], the Outcome entry is reported as “DQ Only”. For the same compound, in series [3] (setting [9]), the “DQ Intensity” value is listed as 164.60. Moreover, in series [3] (setting [10]), the “DQ Spot” value was found to be 127.42. Also, in series [5], the “Nuclear Count” value was 76.70. Besides, the AK in series [7] came to 94.20.
Turning to `CC(C)Oc1ccc2c(-c3ccnc(Nc4ccc(N5CCN(C)CC5)cc4)n3)cnn2n1` [UNC10225414A], the TFEB % in series [1] (PKIS2 primary screening) is on record as 3.20%. Further, the TFE3 % in series [2] (PKIS2 primary screening) is 8.69%. Besides, in series [3] (PKIS2 primary screening), the “DQ Intensity” value was determined as 74.33 and the “DQ Spot” value is 86.73. Moreover, the “Nuclear Count” value in series [5] is 127.68. This compound showed an AK in series [7] of 109.44.
`Cl.c1ccc(-c2ccc3c(Nc4ccc5[nH]ncc5c4)ccnc3c2)nc1` [UNC10225007A] came in with a TFEB % in series [1] (PKIS2 primary screening) of 7.66%. The compound also registered a TFE3 % in series [2] (PKIS2 primary screening) of 16.03%. Also, the Outcome entry in series [6] is on record as “LYSO TOXIC”. Further, the “DQ Intensity” value in series [3] (setting [9]) is given as 77.57. Further, the “DQ Spot” value in series [3] (setting [10]) was 57.65. The compound also came in with an AK in series [7] of 108.57. Further, the “Nuclear Count” value in series [8] was found to be 105.78.
Take `Cc1ccc(C(=O)Nc2ccc(Nc3ccnc4cc(-c5ccccn5)ccc34)cc2O)cc1.Cl` [UNC10225182A]: in series [1] (PKIS2 primary screening), the TFEB % is on record as 30.37%. This compound also yielded a TFE3 % in series [2] (PKIS2 primary screening) of 92.07%. For the same compound, the Outcome entry in series [6] was “LYSO TOXIC”. In series [3] (setting [9]), the “DQ Intensity” value came to 19.25. In series [3] (setting [10]), the “DQ Spot” value worked out at 15.81. The same compound displayed an AK in series [7] of 82.72. The “Nuclear Count” value in series [8] is recorded as 71.22.
In turn, `COc1ccc(C[C@@H](CN)NC(=O)c2cc(Br)c(-c3ccnc4[nH]ccc34)s2)cc1.Cl.Cl` [UNC10225412A, reference compound] showed a TFEB % in series [1] (PKIS2 primary screening) of 17.53%. For the same compound, the “TFEB translocation (in words)” value in series [1] (SH-SY5Y, 24 h treatment) is “translocation of TFEB and TFE3”. Moreover, the TFE3 % in series [2] (PKIS2 primary screening) turned out to be 22.21%. Also, the “TFE3 translocation (in words)” value in series [2] (SH-SY5Y, 24 h treatment) was “strong TFE3 translocation; also recorded: translocation of TFEB and TFE3”. Also, the Outcome entry in series [6] is recorded as “TOXIC”. Also, the “DQ Intensity” value in series [3] (setting [9]) is reported as 276.55. Also, the “DQ Spot” value in series [3] (setting [10]) was determined as 119.63. Besides, in series [3] (SH-SY5Y, 24 h treatment), the “DQ Red BSA fluorescence intensity (in words)” value is recorded as “increase in DQ Red BSA fluorescence intensity” and the “DQ Red BSA spot count / active lysosome count (in words)” value is on record as “small reduction in puncta count”. Moreover, in series [7], the AK worked out at 302.26. Besides, the “Cellular toxicity (AK release and nuclear count, in words)” value in series [7] (SH-SY5Y, 24 h treatment) was “no toxicity; also recorded: without cellular toxicity”. For the same compound, the “Nuclear Count” value in series [8] is given as 99.32.
